Laboratory results reported in article PMC9133015 (Nature Communications, 2022).
Where “and” joins values, the source holds several entries; their conditions need not be identical. Identical values can stand only once. Like-named read-outs stand apart in the source and are kept apart here.

Target: T1, DYRK2 (Homo sapiens, UniProt Q92630)
T1 construct: purchased Reaction Biology Corporation (assay service)
T1 sequence (Q92630 1-601): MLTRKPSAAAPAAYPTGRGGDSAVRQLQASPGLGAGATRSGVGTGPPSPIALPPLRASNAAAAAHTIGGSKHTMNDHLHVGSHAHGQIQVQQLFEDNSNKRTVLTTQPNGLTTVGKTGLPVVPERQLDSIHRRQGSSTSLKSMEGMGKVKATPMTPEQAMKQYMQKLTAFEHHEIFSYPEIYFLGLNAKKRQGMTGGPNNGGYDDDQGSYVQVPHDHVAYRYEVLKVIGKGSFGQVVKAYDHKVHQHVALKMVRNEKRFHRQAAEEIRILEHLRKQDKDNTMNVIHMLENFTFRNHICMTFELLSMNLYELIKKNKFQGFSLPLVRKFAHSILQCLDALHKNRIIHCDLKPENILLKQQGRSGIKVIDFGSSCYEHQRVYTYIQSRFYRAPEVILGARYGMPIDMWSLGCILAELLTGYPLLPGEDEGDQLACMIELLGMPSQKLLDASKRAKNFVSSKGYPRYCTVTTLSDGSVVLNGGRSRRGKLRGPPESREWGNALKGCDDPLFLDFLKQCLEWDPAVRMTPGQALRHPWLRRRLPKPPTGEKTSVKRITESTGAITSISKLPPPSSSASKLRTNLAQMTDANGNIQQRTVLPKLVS
Experiment: DYRKs kinase activity assay (33P-ATP, DYRKtide substrate): DYRK2
Type: biochemical
Details: for DYRK2 inhibitory activity (in words): structural optimization of lead 12

[1] = DYRK2 kinase, Conc. 0.000508053 µM, duplicate values
[2] = DYRK2 kinase, Conc. 0.00152416 µM, duplicate values
[3] = DYRK2 kinase, Conc. 0.00152416 µM, duplicate values, read-out: % Inhibition
[4] = DYRK2 kinase, Conc. 0.00457247 µM, duplicate values
[5] = DYRK2 kinase, Conc. 0.0137174 µM, duplicate values
[6] = DYRK2 kinase, Conc. 0.0137174 µM, duplicate values, read-out: % Inhibition
[7] = DYRK2 kinase, Conc. 0.0411523 µM, duplicate values
[8] = DYRK2 kinase, Conc. 0.0411523 µM, duplicate values, read-out: % Inhibition
[9] = DYRK2 kinase, Conc. 0.123457 µM, duplicate values
[10] = DYRK2 kinase, Conc. 0.123457 µM, duplicate values, read-out: % Inhibition
[11] = DYRK2 kinase, Conc. 0.37037 µM, duplicate values
[12] = DYRK2 kinase, Conc. 0.37037 µM, duplicate values, read-out: % Inhibition
[13] = DYRK2 kinase, Conc. 1.11111 µM, duplicate values
[14] = DYRK2 kinase, Conc. 1.11111 µM, duplicate values, read-out: % Inhibition
[15] = DYRK2 kinase, Conc. 3.33333 µM, duplicate values
[16] = DYRK2 kinase, Conc. 3.33333 µM, duplicate values, read-out: % Inhibition
[17] = DYRK2 kinase, Conc. 10 µM, duplicate values
[18] = DYRK2 kinase, Conc. 10 µM, duplicate values, read-out: % Inhibition
[19] = Supplementary Table 1, read-out: IC50 (μM), DYRK2 kinase
[20] = DYRK2 kinase, Conc. 1.66667 µM, duplicate values

% Inhibition [1]	% Inhibition [2]	inhibition at 0.00152416 µM [3] [%]	% Inhibition [4]	inhibition at 0.00457247 µM [4] [%]	% Inhibition [5]	inhibition at 0.0137174 µM [6] [%]	% Inhibition [7]	inhibition at 0.0411523 µM [8] [%]	% Inhibition [9]	inhibition at 0.123457 µM [10] [%]	% Inhibition [11]	inhibition at 0.37037 µM [12] [%]	% Inhibition [13]	inhibition at 1.11111 µM [14] [%]	% Inhibition [15]	inhibition at 3.33333 µM [16] [%]	% Inhibition [17]	inhibition at 10 µM [18] [%]	IC50 [19] [µM]	Compound	further results
9.05%	8.33%	12.2	11.99%	13.8	16.84%	14	38.81%	36.7	56.81%	55.4	75.73%	74	88.57%	86.9	94.50%	95.3	95.74%	96.6	–	Cl.Fc1cnc(Nc2ccc(N3CCNCC3)cn2)nc1-c1ccc2ncsc2c1 [Compound 21]	inhibition at 0.000508053 µM [1]: 8.81%; IC50 (read-out: DYRK2 IC50): 0.085 µM
-2.89%	–	0.87	2.13%	2.31	–	3.91	–	13.2	26.76%	25	–	35.1	58.80%	58.5	75.98%	76.2	87.41%	87.2	–	CCN1CCN(C(=O)c2cnc(Nc3ncc(F)c(-c4ccc5ncsc5c4)n3)nc2)CC1 [Compound 22]	IC50 (read-out: DYRK2 IC50): 0.697 µM
-1.87% and -5.39%	-4.33% and -7.82%	–	-8.64% and -11.90%	–	-12.62% and -14.01%	–	-8.54% and -12.22%	–	0.35% and 0.01%	–	1.52% and -0.10%	–	6.04%	8.33	1.80% and -0.24%	–	26.16%	28	–	CCN1CCN(Cc2ccc(Nc3ncc(F)c(-c4cnc5ccnn5c4)n3)nc2)CC1 [Compound 19]	DYRK2 inhibitory activity (in words): significantly decreased
4.24% and 12.86%	17.49%	14	28.06%	27.4	45.74%	44.6	67.90%	69.6	84.14%	84.5	92.83%	93.3	95.77%	98	95.36%	94.3	95.58%	96.2	–	CC(C)N1CCN(C(=O)c2ccc(Nc3ncc(F)c(-c4ccc5nc(N(C)C)sc5c4)n3)nc2)CC1 [Compound 25]	DYRK2 inhibitory activity (in words): further improved DYRK2 inhibitory activity
–	–	-1.56	–	-2.27	12.10%	9.69	21.24%	19	36.98%	36.4	58.36%	56	75.32%	75.1	88.49%	88.2	94.11%	93.9	–	Cl.Fc1cnc(Nc2ccc(CN3CCNCC3)cn2)nc1-c1ccc2ncsc2c1 [Compound 18]	inhibition at 0.000508053 µM [1]: -3.69%

Continued, compound first:

Compound	% Inhibition [1]	% Inhibition [2]	inhibition at 0.00152416 µM [3] [%]	% Inhibition [4]	inhibition at 0.00457247 µM [4] [%]	% Inhibition [5]	inhibition at 0.0137174 µM [6] [%]	% Inhibition [7]	inhibition at 0.0411523 µM [8] [%]	% Inhibition [9]	inhibition at 0.123457 µM [10] [%]	% Inhibition [11]	inhibition at 0.37037 µM [12] [%]	% Inhibition [13]	inhibition at 1.11111 µM [14] [%]	% Inhibition [15]	inhibition at 3.33333 µM [16] [%]	% Inhibition [17]	inhibition at 10 µM [18] [%]	IC50 [19] [µM]	further results
Cn1c(CN2CCN(C(=O)C3CCCCC3)CC2)nc2cc(NC(=O)Nc3ccccc3)ccc21 [Compound 13]	1.82% and 2.74%	3.66% and 2.25%	–	7.30% and 8.12%	–	10.53% and 13.70%	–	5.97% and 6.86%	–	12.38% and 8.48%	–	14.58% and 13.01%	–	21.59% and 24.67%	–	29.05% and 32.01%	–	31.39% and 34.31%	–	> 10	–
CC(C)COc1cccc(-c2cc(C(=O)Nc3sc(C(C)C)cc3C(N)=O)c3ccccc3n2)c1 [Compound 9]	0.43% and 0.42%	1.70% and 1.66%	–	-1.24% and 1.19%	–	-4.62% and -2.11%	–	-1.40% and 1.03%	–	2.80% and 5.13%	–	6.00% and 8.26%	–	12.51% and 17.02%	–	18.00% and 19.98%	–	35.11% and 36.69%	–	> 10	–
CCN1CCN(Cc2ccc(Nc3ncc(F)c(-c4ccc5ncsc5c4)n3)nc2)CC1 [Compound 16]	0.29% and 3.35%	-2.64% and 1.62%	–	1.68% and 3.59%	–	8.22%	6.53	26.26%	23.1	48.52%	47.2	63.31%	64.2	68.60%	68.6	73.48%	73.6	77.29%	76.9	–	–
COc1ccc(C2CC(c3ccc(Cl)cc3)=NN2c2ccc(C=NNc3ccccc3)cc2)cc1 (stereo not drawn) [Compound 3]	1.91% and 4.22%	6.35% and 8.58%	–	2.63% and 4.93%	–	8.54% and 10.71%	–	6.26% and 8.49%	–	10.47% and 12.60%	–	12.78% and 14.86%	–	20.14% and 19.70%	–	22.94% and 20.08%	–	22.88% and 24.74%	–	> 10	–
CCN1CCN(C(=O)c2ccc(Nc3ncc(F)c(-c4ccc5nc(N(C)C)sc5c4)n3)nc2)CC1 [Compound 26 (YK-2-69)]	–	–	–	–	–	–	–	–	–	–	–	–	–	–	–	–	–	–	–	–	% Inhibition (DYRK2 kinase, Conc. 0.000762079 µM, duplicate values): 2.89% and 7.10%; % Inhibition (DYRK2 kinase, Conc. 0.00228624 µM, duplicate values): 21.49%; inhibition at 0.00228624 µM (DYRK2 kinase, Conc. 0.00228624 µM, duplicate values, read-out: % Inhibition): 26.1%; % Inhibition (DYRK2 kinase, Conc. 0.00685871 µM, duplicate values): 46.13%; inhibition at 0.00685871 µM (DYRK2 kinase, Conc. 0.00685871 µM, duplicate values, read-out: % Inhibition): 53%; % Inhibition (DYRK2 kinase, Conc. 0.0205761 µM, duplicate values): 59.65%; inhibition at 0.0205761 µM (DYRK2 kinase, Conc. 0.0205761 µM, duplicate values, read-out: % Inhibition): 65.2%; % Inhibition (DYRK2 kinase, Conc. 0.0617284 µM, duplicate values): 82.13%; inhibition at 0.0617284 µM (DYRK2 kinase, Conc. 0.0617284 µM, duplicate values, read-out: % Inhibition): 82.1%; % Inhibition (DYRK2 kinase, Conc. 0.185185 µM, duplicate values): 93.18%; inhibition at 0.185185 µM (DYRK2 kinase, Conc. 0.185185 µM, duplicate values, read-out: % Inhibition): 94.1%; % Inhibition (DYRK2 kinase, Conc. 0.555556 µM, duplicate values): 96.77%; inhibition at 0.555556 µM (DYRK2 kinase, Conc. 0.555556 µM, duplicate values, read-out: % Inhibition): 96.8%; % Inhibition [20]: 98.11%; inhibition at 1.66667 µM [20]: 97.3%; % Inhibition (DYRK2 kinase, Conc. 5 µM, duplicate values): 97.16%; inhibition at 5 µM (DYRK2 kinase, Conc. 5 µM, duplicate values, read-out: % Inhibition): 97.8%
CC(=NNc1nc2c(c(=O)n(Cc3ccccc3)c(=O)n2C)n1Cc1ccccc1)c1ccccc1 [Compound 5]	1.24% and 7.59%	-1.11% and 5.39%	–	11.00% and 16.72%	–	2.77% and 9.02%	–	5.65% and 11.72%	–	2.54% and 8.81%	–	4.47% and 10.61%	–	17.84% and 23.14%	–	28.55% and 33.16%	–	29.52% and 31.99%	–	> 10	–
